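Values below derive from 48-hour exposures of cells grown in 96-well plates, with endpoints linearly interpolated between the two concentrations bracketing the appropriate inhibition level. Here, GI50 denotes the concentration required for 50% inhibition of growth.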 The source made the active and inactive calls. Cut-off read from the data, not from the text of the source: active = GI50 up to about 1.1 µM and inactive = higher.
Assays:
Assay in all cases: NCI tumour cell line growth inhibition, 48 h
A498 = test system: A498
A549 = test system: A549
COLO 205 = test system: COLO 205
HCC 2998 = test system: HCC 2998
HOP-92 = test system: HOP-92
IGROV-1 = test system: IGROV-1
LOX IMVI = test system: LOX IMVI
NCI-H226 = test system: NCI-H226
NCI-H460 = test system: NCI-H460
RPMI-8226 = test system: RPMI-8226
RXF 393 = test system: RXF 393
SN12C = test system: SN12C
SNB-19 = test system: SNB-19
SW-620 = test system: SW-620
CCRF-CEM = test system: CCRF-CEM
HOP-62 = test system: HOP-62
OVCAR-5 = test system: OVCAR-5
SR = test system: SR
BT-549 = test system: BT-549

| SMILES | GI50 (A498) | GI50 (A549) | GI50 (COLO 205) | GI50 (HCC 2998) | GI50 (HOP-92) | GI50 (IGROV-1) | GI50 (LOX IMVI) | GI50 (NCI-H226) | GI50 (NCI-H460) | GI50 (RPMI-8226) | GI50 (RXF 393) | GI50 (SN12C) | GI50 (SNB-19) | GI50 (SW-620) | GI50 (CCRF-CEM) | GI50 (HOP-62) | GI50 (OVCAR-5) | GI50 (SR) | GI50 (BT-549) |
| --- | --- | --- | --- | --- | --- | --- | --- | --- | --- | --- | --- | --- | --- | --- | --- | --- | --- | --- | --- |
| COc1cc2c(cc1OCCCOS(C)(=O)=O)N=C[C@@H]1CCCN1C2=O | > 100 µM (inactive) | > 100 µM (inactive) | > 100 µM (inactive) | > 100 µM (inactive) | > 100 µM (inactive) | > 100 µM (inactive) | > 100 µM (inactive) | > 100 µM (inactive) | > 100 µM (inactive) | > 100 µM (inactive) | > 100 µM (inactive) | > 100 µM (inactive) | > 100 µM (inactive) | > 100 µM (inactive) | – | – | – | – | – |
| CCOC(=O)/C(C(=S)Nc1ccccc1)=C(/N)N1CCCC1 | > 100 µM (inactive) | > 100 µM (inactive) | > 100 µM (inactive) | > 100 µM (inactive) | 2.1 µM (inactive) | > 100 µM (inactive) | > 100 µM (inactive) | > 100 µM (inactive) | 62.2 µM (inactive) | > 100 µM (inactive) | 63.1 µM (inactive) | > 100 µM (inactive) | 50.2 µM (inactive) | 48.9 µM (inactive) | 46.1 µM (inactive) | > 100 µM (inactive) | > 100 µM (inactive) | > 100 µM (inactive) | – |
| C=C/C(C)=C\CC1[C@](C)(O)CC[C@H]2C(C)(C)C(=O)CC[C@]12C (some centres undefined) | > 100 µM (inactive) | 62.7 µM (inactive) | 92.3 µM (inactive) | – | > 100 µM (inactive) | > 100 µM (inactive) | 93.8 µM (inactive) | > 100 µM (inactive) | 50.6 µM (inactive) | 29 µM (inactive) | 32.3 µM (inactive) | > 100 µM (inactive) | > 100 µM (inactive) | > 100 µM (inactive) | 46.6 µM (inactive) | – | > 100 µM (inactive) | 24.6 µM (inactive) | – |
| CCC(C)C(NC(=O)c1cccc2c(=O)c3ccccc3[nH]c12)C(=O)O (centres undefined) | > 100 µM (inactive) | 98.9 µM (inactive) | > 100 µM (inactive) | – | 94.4 µM (inactive) | 96.8 µM (inactive) | > 100 µM (inactive) | > 100 µM (inactive) | – | 57.1 µM (inactive) | – | > 100 µM (inactive) | 99.5 µM (inactive) | > 100 µM (inactive) | 64 µM (inactive) | > 100 µM (inactive) | > 100 µM (inactive) | > 100 µM (inactive) | – |
| N#C/C(=C\NC(=S)Nc1ccc(S(=O)(=O)Nc2ccccn2)cc1)C(N)=O | > 100 µM (inactive) | > 100 µM (inactive) | > 100 µM (inactive) | – | > 100 µM (inactive) | > 100 µM (inactive) | > 100 µM (inactive) | > 100 µM (inactive) | > 100 µM (inactive) | > 100 µM (inactive) | > 100 µM (inactive) | > 100 µM (inactive) | > 100 µM (inactive) | > 100 µM (inactive) | 42.2 µM (inactive) | > 100 µM (inactive) | > 100 µM (inactive) | > 100 µM (inactive) | – |
| CCOC(=O)c1c(SC(=O)/C=C/c2ccccc2)n(-c2ccccc2)c(=S)n(-c2ccccc2)c1=O | > 100 µM (inactive) | > 100 µM (inactive) | > 100 µM (inactive) | > 100 µM (inactive) | > 100 µM (inactive) | > 100 µM (inactive) | > 100 µM (inactive) | > 100 µM (inactive) | > 100 µM (inactive) | – | > 100 µM (inactive) | > 100 µM (inactive) | > 100 µM (inactive) | > 100 µM (inactive) | > 100 µM (inactive) | > 100 µM (inactive) | > 100 µM (inactive) | > 100 µM (inactive) | – |
| COC(=O)C1(C(=O)OC)CC(=O)c2c(OC(=O)c3cccc(OC)c3C#N)ccc(OC(=O)c3cccc(OC)c3C#N)c2C1 | 31.3 µM (inactive) | > 100 µM (inactive) | > 100 µM (inactive) | > 100 µM (inactive) | 83.8 µM (inactive) | > 100 µM (inactive) | > 100 µM (inactive) | > 100 µM (inactive) | > 100 µM (inactive) | 39.1 µM (inactive) | > 100 µM (inactive) | > 100 µM (inactive) | > 100 µM (inactive) | > 100 µM (inactive) | > 100 µM (inactive) | > 100 µM (inactive) | > 100 µM (inactive) | 26.9 µM (inactive) | – |
| C/C(=C\C(=N\NC(=N)N)c1ccccc1)c1ccccc1 | – | 0.577 µM (active) | 0.0348 µM (active) | 0.26 µM (active) | 0.716 µM (active) | 0.432 µM (active) | 1.23 µM (inactive) | 1.15 µM (inactive) | 2.25 µM (inactive) | 1.01 µM (active) | 1.41 µM (inactive) | 0.454 µM (active) | 1.6 µM (inactive) | 0.318 µM (active) | 0.208 µM (active) | 0.0822 µM (active) | 0.64 µM (active) | 2.18 µM (inactive) | – |
| CC(C)(C)NCc1cc(Nc2ccnc3cc(Cl)ccc23)cc(-c2ccc(Cl)cc2)c1O | 2.94 µM (inactive) | 5.4 µM (inactive) | 1.81 µM (inactive) | 2.21 µM (inactive) | 1.87 µM (inactive) | 2.02 µM (inactive) | 2.17 µM (inactive) | 6.12 µM (inactive) | 2.03 µM (inactive) | 1.69 µM (inactive) | 1.79 µM (inactive) | 3.11 µM (inactive) | 4.44 µM (inactive) | 2.26 µM (inactive) | 0.809 µM (active) | 2.06 µM (inactive) | 4.68 µM (inactive) | 1.21 µM (inactive) | – |
| N#Cc1c(O)c2ccccc2[nH]c1=O | > 100 µM (inactive) | > 100 µM (inactive) | > 100 µM (inactive) | > 100 µM (inactive) | > 100 µM (inactive) | > 100 µM (inactive) | > 100 µM (inactive) | > 100 µM (inactive) | – | > 100 µM (inactive) | > 100 µM (inactive) | > 100 µM (inactive) | > 100 µM (inactive) | > 100 µM (inactive) | > 100 µM (inactive) | > 100 µM (inactive) | > 100 µM (inactive) | – | – |
| O=[N+]([O-])c1cccc([N+](=O)[O-])c1Cl | 21.8 µM (inactive) | 14.9 µM (inactive) | 20.6 µM (inactive) | 1.47 µM (inactive) | 18.8 µM (inactive) | 15.9 µM (inactive) | 1.35 µM (inactive) | 27 µM (inactive) | 23.3 µM (inactive) | 1.15 µM (inactive) | 17.7 µM (inactive) | 23.4 µM (inactive) | 13.1 µM (inactive) | 17 µM (inactive) | – | 23.5 µM (inactive) | 19.1 µM (inactive) | 3.93 µM (inactive) | – |
| NC(=S)NS(=O)(=O)c1ccc(Cl)cc1 | – | > 100 µM (inactive) | > 100 µM (inactive) | > 100 µM (inactive) | – | > 100 µM (inactive) | > 100 µM (inactive) | > 100 µM (inactive) | > 100 µM (inactive) | > 100 µM (inactive) | > 100 µM (inactive) | > 100 µM (inactive) | > 100 µM (inactive) | > 100 µM (inactive) | > 100 µM (inactive) | > 100 µM (inactive) | > 100 µM (inactive) | – | > 100 µM (inactive) |
